Experiment: Cabotegravir population pharmacokinetic (PopPK) model
Parameters: species or system human
Method: A cabotegravir population pharmacokinetic (PopPK) model was built based on PK data following cabotegravir (CAB) 200 mg/mL intramuscular (IM) injections collected in 16 historical studies (Population pharmacokinetics of cabotegravir following administration of oral tablet and long-acting intramuscular injection in adult HIV-1-infected and uninfected subjects. Han K, Baker M, Lovern M, Paul P, Xiong Y, Patel P, Moore K P, Seal C S, Cutrell A G, D'Amico R D, Benn P D, Landovitz R J, Marzinke M A, Spreen W R, Ford S L. Br J Clin Pharmacol. 2022 October; 88(10):4607-4622. doi: 10.1111/bcp.15439. Epub 2022 Jul. 4. PMID: 35695476) and updated based on PK data from 19 studies: LAI116585, LAI117010, LAI117011, LAI117020, 201741, 201479, 201480, 205696, LAI116482 (LATTE), LAI115428, LAI116815, 200056 (LATTE-2), 201120 (ECLAIR), 201103 (HPTN077), 201584 (FLAIR), 201585 (ATLAS), 207966 (ATLAS-2M), 201738 (HPTN 083) and 201739 (HPTN 084). A total of 34,850 CAB plasma concentrations collected at various time points from 2,694 participants were used to build this PopPK model. […] The simulations were performed as follows: covariates including body weight, BMI and smoking status were resampled 5000 times from the distribution of these covariates for males and females, generating 5000 virtual male subjects and 5000 virtual female subjects. Individual PK parameters of the virtual subjects were calculated using subject-specific covariates and using the population parameter estimates, subject-specific NONMEM inter-individual errors (ETAs) sampled from the distributions that are decided by the estimated variance-covariate matrix of between-subject variability from the final population PK model. Concentration-versus-time profiles of the virtual subjects were calculated using the individual PK parameters. Residual variability (EPS) was included in the simulation. Median and 10th and 90th percentiles (80% prediction interval) of the simulated concentration-versus-time profiles of the virtual males and females were calculated. […]

## C[C@H]1CO[C@@H]2Cn3cc(C(=O)NCc4ccc(F)cc4F)c(=O)c(O)c3C(=O)N12 [cabotegravir, (3S,11aR)—N-((2,4-difluorophenyl)methyl)-6-hydroxy-3-methyl-5,7-dioxo-2,3,5,11,11a-hexahydro(1,3)oxazolo(3,2-a)pyrido(1,2-d)pyrazine-8-carboxamide]
  KA2 in relation to BMI: decreased with increasing BMI
  KA2 in relation to needle length: lower with longer needle length
CAB 200 mg/mL IM injections
  Long-acting intramuscular gluteal absorption rate constant (KA2), lower in people assigned female at birth than people assigned male at birth: 46.5%

— patent US20250099464A1, “PHARMACEUTICAL COMPOSITIONS” (ViiV Healthcare UK (No.3) Limited, priority 2023, published 2025)
